Assay: xn = mol fraction of the nth substance listed
Conditions: 101 kPa

CCCC[n+]1ccccc1.N#C[N-]C#N + CC1COC(=O)O1
Conditions	electrical conductivity [S/m]	viscosity [mPa·s]
288.15 K, x1 = 0.197	0.742	6.99
288.15 K, x1 = 0.3005	1.42	9.49
288.15 K, x1 = 0.4003	1.56	13.97
288.15 K, x1 = 0.4997	1.5	17.55
288.15 K, x1 = 0.6002	1.73	22.95
288.15 K, x1 = 0.7011	1.64	29.62
288.15 K, x1 = 0.7885	1.86	36.03
288.15 K, x1 = 0.9008	1.76	44.07
288.15 K, x1 = 1	1.05	51.49
293.15 K, x1 = 0.1003	0.749	4.23
293.15 K, x1 = 0.197	0.986	5.99
293.15 K, x1 = 0.3005	1.54	8.102
293.15 K, x1 = 0.4003	1.7	11.73
293.15 K, x1 = 0.6002	1.89	18.85
293.15 K, x1 = 0.7011	1.8	24.05
293.15 K, x1 = 0.7885	2.06	29.56
293.15 K, x1 = 0.9008	1.96	36.12
293.15 K, x1 = 1	1.24	41.05
298.15 K, x1 = 0.1003	0.979	3.756
298.15 K, x1 = 0.197	1.25	5.229
298.15 K, x1 = 0.4003	1.92	10
298.15 K, x1 = 0.4997	1.92	12.17
298.15 K, x1 = 0.6002	2.1	15.72
298.15 K, x1 = 0.9008	2.19	29.65
298.15 K, x1 = 1	1.48	33.27
303.15 K, x1 = 0.1003	1.18	3.361
303.15 K, x1 = 0.197	1.49	4.616
303.15 K, x1 = 0.4003	2.13	8.585
303.15 K, x1 = 0.4997	2.16	10.33
303.15 K, x1 = 0.7011	2.3	16.61
303.15 K, x1 = 0.7885	2.54	20.61
303.15 K, x1 = 0.9008	2.44	24.44
303.15 K, x1 = 1	1.75	27.62
308.15 K, x1 = 0.197	1.71	4.109
308.15 K, x1 = 0.4003	2.36	7.468
308.15 K, x1 = 0.4997	2.37	8.918
308.15 K, x1 = 0.6002	2.6	11.36
308.15 K, x1 = 0.7885	2.82	17.47
308.15 K, x1 = 0.9008	2.72	20.45
308.15 K, x1 = 1	2.01	22.9
313.15 K, x1 = 0.197	1.97	3.689
313.15 K, x1 = 0.4003	2.62	6.563
313.15 K, x1 = 0.4997	2.63	7.769
313.15 K, x1 = 0.6002	2.85	9.83
313.15 K, x1 = 0.7011	2.8	12.08
313.15 K, x1 = 0.7885	3.1	14.86
313.15 K, x1 = 0.9008	3	17.22
313.15 K, x1 = 1	2.26	19.3
318.15 K, x1 = 0.197	2.19	3.335
318.15 K, x1 = 0.3005	2.75	4.265
318.15 K, x1 = 0.4003	2.89	5.812
318.15 K, x1 = 0.4997	2.92	6.839
318.15 K, x1 = 0.6002	3.13	8.579
318.15 K, x1 = 0.7885	3.39	12.44
318.15 K, x1 = 0.9008	3.28	14.84
318.15 K, x1 = 1	2.54	16.73
323.15 K, x1 = 0.1003	2	2.291
323.15 K, x1 = 0.4003	3.17	5.183
323.15 K, x1 = 0.4997	3.27	6.066
323.15 K, x1 = 0.6002	3.42	7.559
323.15 K, x1 = 0.9008	3.6	12.65
323.15 K, x1 = 1	2.88	14.44
328.15 K, x1 = 0.1003	2.23	2.121
328.15 K, x1 = 0.197	2.71	2.794
328.15 K, x1 = 0.3005	3.33	3.481
328.15 K, x1 = 0.4003	3.48	4.656
328.15 K, x1 = 0.4997	3.61	5.42
328.15 K, x1 = 0.7011	3.77	8.083
328.15 K, x1 = 0.7885	4.05	9.34
328.15 K, x1 = 0.9008	3.93	11.05
333.15 K, x1 = 0.1003	2.43	1.968
333.15 K, x1 = 0.4003	3.83	4.209
333.15 K, x1 = 0.4997	3.94	4.876
333.15 K, x1 = 0.6002	4.07	6.001
333.15 K, x1 = 0.7885	4.4	8.312
333.15 K, x1 = 0.9008	4.29	9.53
338.15 K, x1 = 0.1003	2.64	1.834
338.15 K, x1 = 0.3005	4.02	2.906
338.15 K, x1 = 0.4003	4.17	3.827
338.15 K, x1 = 0.4997	4.3	4.429
338.15 K, x1 = 0.6002	4.43	5.401
338.15 K, x1 = 0.7011	4.53	6.433
338.15 K, x1 = 0.7885	4.78	7.324
338.15 K, x1 = 0.9008	4.68	8.488
338.15 K, x1 = 1	3.83	9.79
343.15 K, x1 = 0.1003	2.85	1.716
343.15 K, x1 = 0.197	3.42	2.232
343.15 K, x1 = 0.3005	4.37	2.675
343.15 K, x1 = 0.4003	4.53	3.498
343.15 K, x1 = 0.4997	4.68	4.039
343.15 K, x1 = 0.6002	4.83	4.891
343.15 K, x1 = 0.7885	5.21	6.724
343.15 K, x1 = 1	4.21	8.771
348.15 K, x1 = 0.1003	3.07	1.612
348.15 K, x1 = 0.197	3.69	2.089
348.15 K, x1 = 0.4003	4.92	3.213
348.15 K, x1 = 0.4997	5.12	3.704
348.15 K, x1 = 0.6002	5.3	4.454
348.15 K, x1 = 0.7885	5.72	6.247
348.15 K, x1 = 0.9008	5.61	6.724
348.15 K, x1 = 1	4.53	7.884
353.15 K, x1 = 0.1003	3.26	1.519
353.15 K, x1 = 0.197	3.93	1.964
353.15 K, x1 = 0.3005	5.11	2.296
353.15 K, x1 = 0.4997	5.58	3.414
353.15 K, x1 = 0.6002	5.79	4.076
353.15 K, x1 = 0.7011	5.98	4.787
353.15 K, x1 = 0.7885	6.29	5.647
353.15 K, x1 = 0.9008	6.14	6.159
353.15 K, x1 = 1	4.93	7.129

CC1COC(=O)O1 (configuration not stated) + CCCC[n+]1ccccc1.N#C[N-]C#N
x2 = 0
Conditions	viscosity [mPa·s]
288.15 K	3.064
293.15 K	2.738
298.15 K	2.469
303.15 K	2.24
308.15 K	2.042
313.15 K	1.873
323.15 K	1.595
328.15 K	1.464
338.15 K	1.277
343.15 K	1.195
348.15 K	1.122
353.15 K	1.056

Source: a compilation of properties of binary mixtures (doi:10.1016/j.molliq.2017.11.153)
